{"source": "patent US10265367B2", "about": "“Synergistic antibacterial effects of magnolia bark extract and L-arginine, N-α-lauroyl ethyl ester on plaque biofilm” (WM. WRIGLEY JR. COMPANY, priority 2015, dated 2019)", "key": {"[1]": {"system": "salivary bacteria biofilm", "experiment": "In vitro biofilm assay (salivary bacteria on saliva-treated hydroxyapatite discs)", "type": "cell-based", "method": "Biofilms were prepared and tested by a modified method from Guggenheim (Guggenheim B., Gierstein E., Schupbach P, Shapiro S., 2001. “Validation of an in vitro biofilm model of supragingival plaque” Journal Dental Research 80:363-370), which is herein incorporated by reference. Briefly, biofilms were grown by incubating salivary bacteria with saliva-treated hydroxyapatite (HA) discs in sterile 24 well cell culture plates. Using media supplemented with saliva (25% total volume), and transferring discs frequently during the growth phase, encouraged growth of a dental plaque-like biofilm. This was developed for up to 72 hours. The biofilm was exposed to the test compositions (set forth in Table 1) three times a day, for five minutes, on days two and three of the experiment. Biofilm was quantified turbidometrically and by spectrophometric absorption at 600 nm.\nThe number of CFU for each biofilm was determined as follows. After vigorous shaking, 0.1 ml of the liquid from each biofilm cell was pipetted into 10 ml reverse osmosis (RO) H2O (100× dilution). The 100× dilution was shaken, and 0.1 ml was pipetted into 10 ml RO H2O (10,000× dilution). […] After the growth period, the number of colonies of bacteria growing on each plate were counted. […]\nThe IC40 of MBE was determined, and was used as a positive control concentration."}, "[2]": {"system": "salivary bacteria", "experiment": "Inhibition of biofilm formation on saliva-precoated pegs (Calgary device), MBIC/FBIC", "type": "cell-based", "method": "80 ml of saliva was collected from 4 donors and centrifuged at 3800 rpm to remove food debris. 15 ml supernatant was removed and mixed with an equal volume of 1×PBS. The mixture was then filter sterilized to collect saliva proteins that were used to precoat suspended pegs in the lid of the Calgary device for 3 hours. Meanwhile, the remaining saliva was centrifuged at 10,000 rpm to collect bacteria for biofilm inoculum. After centrifugation, the pellet was resuspended to an OD600 of 0.05 and premixed with defined concentrations of LAE-CF (99% purity, from Vedeqsa), MBE and a combination of the two actives at predetermined ratios. The actives and inoculum were added to the saliva precoated pegs and incubated overnight for at least 16 hours to allow for biofilm formation. Controls included growth (no actives) and media only (no bacteria).\nThe efficacy of the LAE and MBE synergistic effects are shown in the minimal biofilm inhibitory concentrations (MBIC) and fractional biofilm inhibitory concentration (FBIC) for the two actives. The FBIC was calculated according to the following formula: FBIC=[QA/Qa+QB/Qb] where\nQA=the MBIC of component A combined with component B.\nQa=the MBIC of component A alone.\nQB=the MBIC of component B combined with component A.\nQb=the MBIC of component B alone. […]"}}}
{"smiles": "CCCCCCCCCCCC(=O)N[C@@H](CCCNC(=N)N)C(=O)OCC", "note": "[LAE, L-arginine, N^α-lauroyl ethyl ester]", "values": [{"measurement": "inhibition at 1000 ppm", "setting": "[1]; 5 min, 1000 ppm, biofilm exposed 5 min three times a day on days 2 and 3", "value": 82, "unit": "%"}, {"measurement": "percent inhibition compared to the positive control", "setting": "[1]; positive control = MBE at IC40", "value": "not better than the positive control"}, {"measurement": "FBIC (fractional biofilm inhibitory concentration)", "setting": "[2]; FBIC=QA/Qa+QB/Qb, <1 synergistic", "value": 1}, {"measurement": "MBIC (minimal biofilm inhibitory concentration)", "setting": "[2]; active alone, overnight at least 16 hours", "value": 125, "unit": "ppm"}]}
